From patent publication US20030104507A1, “Method for detection of ATP” (priority 2001, published 2003)

Tests used:
[1] = target: native firefly luciferase (Photinus pyralis, UniProt P08659); conditions: cited from earlier work
[2] = test system: ATPase activity endogenous to L929 cell lysate; assay: Detergent inhibition of ATPase endogenous to L929 cell lysate (ATP remaining by luciferase luminescence, 22° C.); type: biochemical; parameters: key to Relative ATPase Activity, slope det/slope lysate: slope with detergent / slope without; ≥1.0 = 100% activity, 0.5 = 50%
Procedure, shortened: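 L929 lysate (1.5×10^5 cells/ml, four freeze–thaw cycles) held with detergent at final 1.0, 0.5, 0.1 or 0.05% at 22° C; remaining ATP read over time with luciferase-luciferin reagent (100 μM luciferin, 10 mM MgSO4, pH 7.5). Relative ATPase activity = slope of log % ATP remaining vs time with detergent ÷ slope for lysate-only control.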

native firefly luciferase, sequence (P08659 whole entry): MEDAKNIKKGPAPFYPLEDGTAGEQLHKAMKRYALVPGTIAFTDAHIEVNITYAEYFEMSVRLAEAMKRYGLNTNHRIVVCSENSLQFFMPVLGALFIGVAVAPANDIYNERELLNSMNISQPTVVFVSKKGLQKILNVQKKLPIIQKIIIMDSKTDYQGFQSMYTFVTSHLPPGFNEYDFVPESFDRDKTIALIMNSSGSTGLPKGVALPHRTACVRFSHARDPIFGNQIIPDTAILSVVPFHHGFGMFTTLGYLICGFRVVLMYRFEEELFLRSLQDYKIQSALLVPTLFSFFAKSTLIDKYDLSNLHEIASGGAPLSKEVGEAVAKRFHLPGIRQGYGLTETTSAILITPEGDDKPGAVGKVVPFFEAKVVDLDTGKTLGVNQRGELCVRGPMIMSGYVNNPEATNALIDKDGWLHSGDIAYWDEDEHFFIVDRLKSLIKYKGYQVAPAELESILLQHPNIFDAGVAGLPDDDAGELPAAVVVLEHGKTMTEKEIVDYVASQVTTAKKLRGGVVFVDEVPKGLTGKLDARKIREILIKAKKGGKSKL

SMILES: CCCCCCCCCCCCCCCC[N+](C)(C)C.[Br-] [CTAB, Cetyltrimethylammonium bromide]
- effect on native firefly luciferase [1]: inactivated
- Relative ATPase Activity, slope det/slope lysate ([2]; 0.02 percent detergent): 0.718
- Slope (log percent ATP remaining vs time in minutes) ([2]; 0.02 percent detergent): −0.0046
- Average Relative Light Unit Values ([2]; 0.05% detergent, 5 min): 6525.51 rlu
- Percent ATP Remaining ([2]; 0.05% detergent, 5 min): 100%
- Average Relative Light Unit Values ([2]; 0.05% detergent, 75 min): 4029.32 rlu
- Percent ATP Remaining ([2]; 0.05% detergent, 75 min): 61.7%
- Average Relative Light Unit Values ([2]; 0.05% detergent, 169 min): 2093.80 rlu
- Percent ATP Remaining ([2]; 0.05% detergent, 169 min): 32.1%
- Average Relative Light Unit Values ([2]; 0.05% detergent, 222 min): 1437.67 rlu
- Percent ATP Remaining ([2]; 0.05% detergent, 222 min): 22.0%
- Average Relative Light Unit Values ([2]; 0.05% detergent, 260 min): 1002.72 rlu
- Percent ATP Remaining ([2]; 0.05% detergent, 260 min): 15.4%
- Relative ATPase Activity, slope det/slope lysate ([2]; 0.05 percent detergent): 0.561
- Slope (log percent ATP remaining vs time in minutes) ([2]; 0.05 percent detergent): −0.0031
- Average Relative Light Unit Values ([2]; 0.1% detergent, 5 min): 5104.82 rlu
- Percent ATP Remaining ([2]; 0.1% detergent, 5 min): 100%
- Average Relative Light Unit Values ([2]; 0.1% detergent, 75 min): 3607.65 rlu
- Percent ATP Remaining ([2]; 0.1% detergent, 75 min): 70.7%
- Average Relative Light Unit Values ([2]; 0.1% detergent, 169 min): 1889.29 rlu
- Percent ATP Remaining ([2]; 0.1% detergent, 169 min): 37.0%
- Average Relative Light Unit Values ([2]; 0.1% detergent, 222 min): 1248.51 rlu
- Percent ATP Remaining ([2]; 0.1% detergent, 222 min): 24.5%
- Relative ATPase Activity, slope det/slope lysate ([2]; 0.10 percent detergent): 0.507
- Slope (log percent ATP remaining vs time in minutes) ([2]; 0.10 percent detergent): −0.0028
- Average Relative Light Unit Values ([2]; 0.5% detergent, 5 min): 0.34 rlu
- Average Relative Light Unit Values ([2]; 0.5% detergent, 75 min): 0.28 rlu
- Average Relative Light Unit Values ([2]; 0.5% detergent, 169 min): 0.23 rlu
- Average Relative Light Unit Values ([2]; 0.5% detergent, 222 min): 0.27 rlu
- Average Relative Light Unit Values ([2]; 0.5% detergent, 260 min): 0.18 rlu
- Average Relative Light Unit Values ([2]; 1.0% detergent, 5 min): 0.09 rlu
- Average Relative Light Unit Values ([2]; 1.0% detergent, 75 min): 0.08 rlu
- Average Relative Light Unit Values ([2]; 1.0% detergent, 169 min): 0.07 rlu
- Average Relative Light Unit Values ([2]; 1.0% detergent, 222 min): 0.06 rlu
- Average Relative Light Unit Values ([2]; 1.0% detergent, 260 min): 0.07 rlu
- times more ATP present in the sample after four hours when the detergent was present than when it was absent ([2]; CTAB 0.05%): about four
- Percent ATP Remaining ([2]; Example 2, 0.02% detergent, 5 min): 100.00%
- Percent ATP Remaining ([2]; Example 2, 0.02% detergent, 75 min): 43.22%
- Percent ATP Remaining ([2]; Example 2, 0.02% detergent, 169 min): 15.49%
- Percent ATP Remaining ([2]; Example 2, 0.02% detergent, 222 min): 9.73%
- Percent ATP Remaining ([2]; Example 2, 0.02% detergent, 260 min): 6.92%
